US20040192611A1, “Peptide antioxidants from soy protein” (Kraft Foods Holdings, Inc., priority 2003, published 2004)

assay: Antioxidant activity of soy-derived peptides isolated by HPLC (assay not specified); conditions: qualitative statement
Description: In another aspect, the invention is directed to a method of producing a peptide with antioxidant activity. The peptide is made by digesting soy protein isolate (available commercially, e.g., from Protein Technology International, St. Louis, Mo., or using procedures well established in the art) with a protease to produce an aqueous hydrolysate solution. Proteases that may be used for digestion include chymosin, papain, neutrase, promod, and flavozyme and, preferably, either alcalase or corolase. The protease may come from bacterial, plant or fungal sources. The aqueous hydrolysate solution is extracted with an organic solvent, preferably acetone, and the organic phase is selected for further processing. After extraction, solvent may be removed under reduced pressure to concentrate the peptide and the preparation is then fractionated by reverse phase high pressure liquid chromatography (HPLC). Fractions collected during this process may be assayed for antioxidant activity using methods such as those described in the Examples section herein. The identification of fractions containing the peptide may be based upon the presence of antioxidant activity and upon retention time during chromatography. The identity of the peptide within fractions can be confirmed by sequence analysis.
After recovering peptide from the extraction, reverse phase high pressure liquid chromatography may be performed using, for example, a C18 column. […] Fractions collected from the column may be tested for antioxidant activity to identify peaks that are of interest. Finally, specific peptides may be identified by carrying out sequencing experiments.
Fractions with antioxidant activity are collected and subjected to further purification. This is carried out using the mobile phases:
Fractions with antioxidant activity are collected and subject to further purification. In this case, the same mobile phases are used. The flow rate is set at 0.4 ml/min and ultraviolet absorbance is set at 275 nm. The gradient elution program is set as follows: […]

Substance	antioxidant activity
SWWPF (Glycine max)	found to have antioxidant activity
WTY	found to have antioxidant activity
WWMY (Glycine max)	found to have antioxidant activity
